According to patent publication US20250129021A1, “SMALL MOLECULE PROTEIN SYNTHESIS MODULATORS” (Interdict Bio, Inc., priority 2023, published 2025):

What was measured:
Assay type in all cases: biochemical
MYC = assay: In vitro transcription-translation (IVTT) assay, MYC reporter; conditions: IVTT assay, HeLa S3 lysate, MYC reporter, normalized sfGFP/mCherry ratio; half-log dilutions 30 μM-0.1 μM, 2 hrs at 30° C.
Description: (§1) All reporter constructs have been cloned into the pT7CFE1-CHis plasmid (ThermoFisher #88860) using Gibson assembly procedures (NEB #E2611L). The parental pT7CFE1-CHis plasmid contains an EMCV IRES at the 5′UTR for translation initiation, a multiple-cloning site (MCS) for gene insertion, an optional C-terminal His-epitope tag, and polyA sequence in the 3′UTR to regulate mRNA stability. All reporters are designed to be inserted at the MCS to include a red fluorescent protein (mCherry), P2A self-cleaving peptide which releases the preceding mCherry protein product, and a fusion open reading frame containing a 3×FLAG epitope, a peptide sequence of interest (TEST), and green fluorescent protein (sfGFP).
(§2) Construct Plasmid Preparation: All plasmids are isolated from MACH1 cells (ThermoFisher) grown overnight in ampicillin-containing luria broth, and purified using ZymoPure Express Plasmid Midiprep Kit (Zymo Research). Constructs are sequenced verified and diluted to a working concentration of 110 ng/μL.
(§3) HeLa S3 Lysate Preparation: HeLa S3 cell pellets are acquired from Ipracell/Ipratech (Belgium) and shipped as 4 mL frozen cell pellets on dry ice for storage at −80° C. until use. The procedure for lysate preparation is as follows. Prepare 1× Lysis Buffer, cold and stored on ice:
(§4) Each preparation takes 8 cell pellets (4 ml packed volume each, approximately 1.0×10^9 cells per pellet). Thaw cell pellets from −80° C. on ice for 90 mins. Lay pellets horizontally on top of the ice and rotate every 30 mins to ensure even thawing. Once thawed, add 4 mL of cold lysis buffer to each pellet, and using a serological pipet, gently pipet up and down to break up clumps. Incubate resuspended cells in ice for an additional 30 mins (plunged into ice). During 30 min incubation, rinse and RNase-zap (Ambion) glass dounces (use loose pestle “A”), gently dry and place on ice until needed. Prepare RNase-free Eppendorf tubes for spinning and for batch storage. Add batch labels to 1.5-1.7 mL RNase-free microcentrifuge tubes (labeling scheme below). Each batch will have an extra 1.5-1.7 mL RNase-free microcentrifuge tube for 40 μL of lysate, label the top of this tube (labeling scheme below). After 30 min incubation, transfer all 8 mL of cell pellet to dounce. Cell lysis is complete after douncing 100 times. Aliquot cell lysis into 1.5-1.7 mL temporary-microcentrifuge tubes. Place tubes in centrifuge with “fins” out, and spin at 1,200×g for 5 mins. After the first spin use a 1 mL pipet to resuspend each tube and repeat spin. This acts as an additional lysis step, is more vigorous and increases lysate yield. During second spin get liquid N2 and a fresh conical tube on ice. After spin is complete, transfer supernatant (lysate) from microcentrifuge tubes into the 50 mL conical tube and keep on ice. Repeat steps 10-14 for all other cell pellets until completed. Once all cell lysate has been transferred to the 50 mL conical tube pipet to mix so the solution is homogenous. Transfer 1 mL of lysate into batch-labeled microcentrifuge tubes and flash freeze in liquid nitrogen. Be sure to pipet up and down to mix throughout transfer step. Place all tubes in the […] for long-term storage.
(§5) In vitro transcription-translation assay setup: Each assay includes a master mix containing lysate and shared components, a 96-well plate containing compound titrations for testing, a 96-well DNA plate with reporter constructs to be tested, 96-well skirted PCR plates, and 96-well flat-bottom, black, fluorescent assay plates. […]

CCND1 = assay: In vitro transcription-translation (IVTT) assay, CCND1 reporter; conditions: IVTT, HeLa S3 lysate, 2 hrs at 30° C.
Description: as §1, §2, §3, §4, §5

CCNTB1 = assay: In vitro transcription-translation (IVTT) assay, CCNTB1 reporter; conditions: HeLa S3 lysate, 2 hrs at 30° C.
Method: as §4
In vitro transcription-translation assay setup: Each assay includes a master mix containing lysate and shared components, a 96-well plate containing compound titrations for testing, a 96-well DNA plate with reporter constructs to be tested, 96-well skirted PCR plates, and 96-well flat-bottom, black, fluorescent assay plates. Reaction materials setup: (A) Master mix—15 mL conical tube (3 mL of HeLa S3 Lysate described above; 0.6 mL of ThermoFisher Accessory Proteins (#88882); 1.2 ml of ThermoFisher Reaction Mix (#88882); 0.54 mL of nuclease-free Water); (B) 96-Well Master Mix+Compound Plate (Half-log dilutions (30 μM−0.1 μM) of 4 compounds of interest are prepared in 100% DMSO); 96-Well DNA Plate (Five DNA constructs are plated into single columns within the plate. Row 1 of the column contains nuclease free H2O, all other wells contain 110 ng/μL plasmid DNA). Reactions are started by mixing 155 μL of master mix and 3.5 μL of compound serial dilutions, then 9.1 μL of master mix+compound mixture is aliquoted across 5 96-well plates. Reactions begin with final addition of 2 μL of DNA for a 11.1 μL reaction volume in each well. The entire plate is sealed, and incubated for 2 hrs at 30° C. After 2 hrs, quench the assay using 45 μL of PBS, and transfer 50 μL to a flat-bottom black microplate Quantify the sfGFP and mCherry signals from each well on each plate, taking 3 reads of each plate, and perform data analysis below.
In vitro transcription-translation assay data analysis: Each plate is read three times in channels for both sfGFP and mCherry signals. The average signal across these 3 reads is then calculated for further analysis. Control wells containing no DNA reporter are subtracted from reporter wells in the same column to remove auto-fluorescence of the lysate. Then, the ratio of sfGFP/mCherry is calculated per well, and these ratios are averaged across the triplicate experiments on the same plate. Finally, the ratio of each titration concentration is normalized to the no drug control to create the normalized stalling metric. […]

MCL-1 = assay: In vitro transcription-translation (IVTT) assay, MCL-1 reporter; conditions: IVTT, HeLa S3 lysate, 2 hrs at 30° C.; read-out: MCL1 IC50
Description: as §1, §2, §3, §4, §5

IC50 (CCND1)	IC50 (CCNTB1)	IC50 (MCL-1)	SMILES	IC50 (MYC)
< 10 µM	< 10 µM	< 10 µM	COc1ccc(C[C@H]2NC[C@H](O)[C@H]2OC(=O)NCc2ccc(F)cc2)cc1 [V188378, (2R,3S,4S)-4-hydroxy-2-[(4-methoxyphenyl)methyl]pyrrolidin-3-yl N-[(4-fluorophenyl)methyl]carbamate]	< 10 µM
10 to 20 µM	< 10 µM	< 10 µM	COc1ccc(C[C@H]2NC[C@H](O)[C@H]2OC(=O)NCC2COC2)cc1 [V188299, (2R,3S,4S)-4-hydroxy-2-[(4-methoxyphenyl)methyl]pyrrolidin-3-yl N-(oxetan-3-ylmethyl)carbamate]	< 10 µM
< 10 µM	< 10 µM	< 10 µM	COc1ccc(C[C@H]2NC[C@H](O)[C@H]2OC(=O)NCC[C@@H]2CCN2)cc1 [V191920, (2R,3S,4S)-4-hydroxy-2-[(4-methoxyphenyl)methyl]pyrrolidin-3-yl N-{2-[(2S)-azetidin-2-yl]ethyl}carbamate]	< 10 µM
20 to 30 µM	< 10 µM	10 to 20 µM	COc1ccc(C[C@H]2NC[C@H](O)[C@H]2OC(=O)NCC[C@H]2CCCN2)cc1 [V188342, (2R,3S,4S)-4-hydroxy-2-[(4-methoxyphenyl)methyl]pyrrolidin-3-yl N-{2-[(2R)-pyrrolidin-2-yl]ethyl}carbamate]	< 10 µM
< 10 µM	< 10 µM	< 10 µM	COc1ccc(C[C@H]2NC[C@H](O)[C@H]2OC(=O)NCc2ccc(Cl)s2)cc1 [V188373, (2R,3S,4S)-4-hydroxy-2-[(4-methoxyphenyl)methyl]pyrrolidin-3-yl N-[(5-chlorothiophen-2-yl)methyl]carbamate]	< 10 µM
< 10 µM	< 10 µM	< 10 µM	COc1ccc(C[C@H]2NC[C@H](O)[C@H]2OC(=O)NCc2cc(F)cc(F)c2)cc1 [V188380, (2R,3S,4S)-4-hydroxy-2-[(4-methoxyphenyl)methyl]pyrrolidin-3-yl N-[(3,5-difluorophenyl)methyl]carbamate]	< 10 µM
< 10 µM	< 10 µM	< 10 µM	COc1ccc(C[C@H]2NC[C@H](O)[C@H]2OC(=O)NCc2ccc(N)nn2)cc1 [V188311, (2R,3S,4S)-4-hydroxy-2-[(4-methoxyphenyl)methyl]pyrrolidin-3-yl N-[(6-aminopyridazine-3-yl)methyl]carbamate]	< 10 µM
10 to 20 µM	< 10 µM	< 10 µM	COc1ccc(C[C@H]2NC[C@H](O)[C@H]2OC(=O)NCC[C@@H]2CCC3(CC3)N2)cc1 [V191945, (2R,3S,4S)-4-hydroxy-2-[(4-methoxyphenyl)methyl]pyrrolidin-3-yl N-{2-[(5S)-4-azaspiro[2.4]heptan-5-yl]ethyl}carbamate]	< 10 µM
10 to 20 µM	< 10 µM	20 to 30 µM	COc1ccc(C[C@H]2NC[C@H](O)[C@H]2OC(=O)NCC(F)(F)c2ccccc2)cc1 [V188165, (2R,3S,4S)-4-hydroxy-2-[(4-methoxyphenyl)methyl]pyrrolidin-3-yl N-(2,2-difluoro-2-phenylethyl)carbamate]	20 to 30 µM
< 10 µM	< 10 µM	< 10 µM	COc1ccc(C[C@H]2NC[C@H](O)[C@H]2OC(=O)NCc2ccc(N)nc2)cc1 [V188316, (2R,3S,4S)-4-hydroxy-2-[(4-methoxyphenyl)methyl]pyrrolidin-3-yl N-[(6-aminopyridin-3-yl)methyl]carbamate]	< 10 µM
20 to 30 µM	< 10 µM	10 to 20 µM	COc1ccc(C[C@H]2NC[C@H](O)[C@H]2OC(=O)NCCC(C)(C)O)cc1 [V190413, (2R,3S,4S)-4-hydroxy-2-[(4-methoxyphenyl)methyl]pyrrolidin-3-yl N-(3-hydroxy-3-methylbutyl)carbamate]	10 to 20 µM
< 10 µM	< 10 µM	< 10 µM	COc1ccc(C[C@H]2NC[C@H](O)[C@H]2OC(=O)NCc2cnsc2)cc1 [V188384, (2R,3S,4S)-4-hydroxy-2-[(4-methoxyphenyl)methyl]pyrrolidin-3-yl N-(1,2-thiazol-4-ylmethyl)carbamate]	< 10 µM
< 10 µM	< 10 µM	< 10 µM	COc1ccc(C[C@H]2NC[C@H](O)[C@H]2OC(=O)NCC2CCC2)cc1 [V188318, (2R,3S,4S)-4-hydroxy-2-[(4-methoxyphenyl)methyl]pyrrolidin-3-yl N-(cyclobutylmethyl)carbamate]	< 10 µM
< 10 µM	< 10 µM	< 10 µM	COc1ccc(C[C@H]2NC[C@H](O)[C@H]2OC(=O)NCc2cccc(C(F)F)c2)cc1 [V191954, (2R,3S,4S)-4-hydroxy-2-[(4-methoxyphenyl)methyl]pyrrolidin-3-yl N-{[3-(difluoromethyl)phenyl]methyl}carbamate]	< 10 µM
< 10 µM	< 10 µM	< 10 µM	COc1ccc(C[C@H]2NC[C@H](O)[C@H]2OC(=O)NCc2ccc3c(c2)CCNC3)cc1 [V188345, (2R,3S,4S)-4-hydroxy-2-[(4-methoxyphenyl)methyl]pyrrolidin-3-yl N-(1,2,3,4-tetrahydroisoquinolin-6-ylmethyl)carbamate]	< 10 µM
> 30 µM	10 to 20 µM	10 to 20 µM	COc1ccc(C[C@H]2NC[C@H](O)[C@H]2OC(=O)NCc2ccc(C3CC3)cc2)cc1 [V188321, (2R,3S,4S)-4-hydroxy-2-[(4-methoxyphenyl)methyl]pyrrolidin-3-yl N-[(4-cyclopropylphenyl)methyl]carbamate]	> 30 µM
20 to 30 µM	< 10 µM	< 10 µM	COc1ccc(C[C@H]2NC[C@H](O)[C@H]2OC(=O)NCC#Cc2ccccc2)cc1 [V188315, (2R,3S,4S)-4-hydroxy-2-[(4-methoxyphenyl)methyl]pyrrolidin-3-yl N-(3-phenylprop-2-yn-1-yl)carbamate]	10 to 20 µM
